Test [1] addresses Recombinant human KAT6A protein (497-780) (Homo sapiens (Human), UniProt Q92794). The test can be described thus: KAT6A biochemical TR-FRET assay. The conditions noted are these: histone H4 peptide 2000 nM, AcCoA 300 nM, enzyme 5 nM. The method, then:
Enzymatic reactions of KAT6A and KAT6B were performed using Fluorescence Resonance Energy Transfer (TR-FRET) assay, which measures acetylation of a synthetic, biotinylated histone-H4 peptide by the KAT6A and KAT6B enzymes. Recombinant human KAT6A protein (497-780) were expressed in BL21 cell using an E. coli expression system. Recombinant human KAT6B protein (657-1069) was expressed in sf9 cell using a baculovirus expression system. […] Acetyl coenzyme A was purchased from Sigma-Aldrich (#A-2056).
Testing for the inhibition activities of various compounds disclosed herein was carried out at room temperature in assay buffer containing 100 mM Tris/HCl Ph7.8, 15 mM NaCl, 0.01% chicken egg white albumin, 1 mM DTT and 0.01% Tween-20. Compounds in DMSO were dispensed into wells of a black, 384-well plate (Corning 4514) using ECHO555 (Beckman). The final concentration ranges of the test compounds were 0.0625-1,000 nM, 0.625-10,000 nM, or 0.313-5,000 nM. Five μL of KAT6A or KAT6B enzyme solution were added to wells, and the plate was incubated for 1 hour at room temperature (rt). After incubation for 1 hour at rt, 5 μL H4 and AcCoA substrate solutions were added to the wells to initiate reaction, and the plate was incubated. After 2 hours reaction, 5 μL detection reagent were added to the wells, and the plate was incubated for 2 hours. After two hours incubation, detection reagent containing 5 nM Anti-histone H4 antibody (ABCAM #ab177790), 100 μM formic acid (sigma #06473-100ML), 0.1 test/μL streptavidin-XL665 (PerkinElmer #610SAXLG), 0.05 test/μL PAb anti-rabbit IgG-Eu (PerkinElmer μ61PARKLA) was added to the wells. TR-FRET was measured on a microplate reader (PHERAstar FSX, BMG labtech). […] In Table 6, I≤5 nM, 5 nM<II≤50 nM.

The test system of test [2] is histone H3K23 acetylation in U-2 OS cells. Put plainly: Histone H3 lysine 23 acetylation assay in U-2 OS cells (high content analysis). It is filed as cell-based. The conditions noted are these: Homo sapiens, U2OS, 24 hrs exposure, H3K23ac level. How it is done:
Assay B: Histone H3 lysine 23 Acetylation Assay
Compounds were tested for their capacity to suppress the histone H3K23 acetylation in the following high content analysis assay.
The cell line U-2 OS (ATCC HTB-96) was seeded at a density of 2000 cells per well in black 384 well cell culture/imaging microplates in 45 μl McCoy's 5A medium with […]. After overnight incubation in 37° C., 5% CO2 incubator, cells were then treated with a 9-point dilution series of compounds and a blank control group with medium containing 0.1% DMSO.
Following a 24 hrs exposure to the compounds, the cells were fixed with 4% immunohistochemical fixative for 20 mins at room temperature, washed with DPBS with 2% fetal bovine serum, and permed with Perm Buffer III for 30 min on ice, washed with DPBS with 2% fetal bovine serum. Then the cells were blocked with Odyssey blocking buffer containing 0.1% Tween 20. 20 ul Anti-Histone H3 (acetyl K23) antibody (Abcam, ab177275) in odyssey blocking buffer containing 0.1% Tween20 was added and incubated overnight at 4° C. After incubation, the cells were washed for 3 times and a secondary antibody Anti-rabbit IgG (H+L), F(ab′)2 Fragment (Alexa Fluor® 647 Conjugate) (CST, 4414S) were added into cells for one hour. The cells were washed and 1 ug/ml DAPI (Thermo, 62248) were added for 10 min. Then cells were washed and read on the PerkinElmer Operetta CLS high content analysis system. The nuclei were identified by DAPI and H3K23ac level was calculated from the Alexa Fluor 647 intensity in the nuclei. Inhibition rate of H3K23ac was calculated as the mean intensity of cells per well relative to blank controls on the same plate.

The target in test [3] is Recombinant human KAT6B protein (657-1069) (Homo sapiens (Human), UniProt Q8WYB5). Put plainly: KAT6B biochemical TR-FRET assay. Conditions: histone H4 peptide 1000 nM, AcCoA 100 nM, enzyme 5 nM. The method, then: Enzymatic reactions of KAT6A and KAT6B were performed using Fluorescence Resonance Energy Transfer (TR-FRET) assay, which measures acetylation of a synthetic, biotinylated histone-H4 peptide by the KAT6A and KAT6B enzymes. Recombinant human KAT6A protein (497-780) were expressed in BL21 cell using an E. coli expression system. Recombinant human KAT6B protein (657-1069) was expressed in sf9 cell using a baculovirus expression system. Histone H4 peptide (SEQ ID NO: 1—[…]-GGK-Biotin), which was used as substrate, was synthesized by GL Biochem, Shanghai, China. Acetyl coenzyme A was purchased from Sigma-Aldrich (#A-2056).
Sequence of Recombinant human KAT6B protein (657-1069) (Q8WYB5 657-1069): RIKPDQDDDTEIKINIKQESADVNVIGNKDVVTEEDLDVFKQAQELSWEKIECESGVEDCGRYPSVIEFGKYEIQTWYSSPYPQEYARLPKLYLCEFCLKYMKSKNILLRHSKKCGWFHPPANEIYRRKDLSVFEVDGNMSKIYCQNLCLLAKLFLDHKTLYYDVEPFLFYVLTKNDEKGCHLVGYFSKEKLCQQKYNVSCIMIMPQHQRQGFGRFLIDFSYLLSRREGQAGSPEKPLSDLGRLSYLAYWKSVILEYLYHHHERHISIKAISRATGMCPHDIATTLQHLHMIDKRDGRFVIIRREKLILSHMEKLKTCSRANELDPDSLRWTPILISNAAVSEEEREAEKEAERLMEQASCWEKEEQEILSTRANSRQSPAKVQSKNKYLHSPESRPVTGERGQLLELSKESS
Testing for the inhibition activities of various compounds disclosed herein was carried out at room temperature in assay buffer containing 100 mM Tris/HCl Ph7.8, 15 mM NaCl, 0.01% chicken egg white albumin, 1 mM DTT and 0.01% Tween-20. Compounds in DMSO were dispensed into wells of a black, 384-well plate (Corning 4514) using ECHO555 (Beckman). The final concentration ranges of the test compounds were 0.0625-1,000 nM, 0.625-10,000 nM, or 0.313-5,000 nM. Five μL of KAT6A or KAT6B enzyme solution were added to wells, and the plate was incubated for 1 hour at room temperature (rt). After incubation for 1 hour at rt, 5 μL H4 and AcCoA substrate solutions were added to the wells to initiate reaction, and the plate was incubated. After 2 hours reaction, 5 μL detection reagent were added to the wells, and the plate was incubated for 2 hours. After two hours incubation, detection reagent containing 5 nM Anti-histone H4 antibody (ABCAM #ab177790), 100 μM formic acid (sigma #06473-100ML), 0.1 test/μL streptavidin-XL665 (PerkinElmer #610SAXLG), 0.05 test/μL PAb anti-rabbit IgG-Eu (PerkinElmer μ61PARKLA) was added to the wells. TR-FRET was measured on a microplate reader (PHERAstar FSX, BMG labtech). The IC50s were calculated based on inhibition of enzyme activity in the presence of increasing concentrations of test compounds, and the results are shown in Table 6. In Table 6, I≤5 nM, 5 nM<II≤50 nM.
(Time-resolved FRET reads energy transfer from a long-lived donor to a nearby acceptor.)

pIC50: −log10 of the molar value.

Experimental findings from patent US20250304535A1, “KAT6 Inhibitors” (BeiGene Switzerland GmbH, priority 2024, published 2025) are described below.

Sequence of Recombinant human KAT6A protein (497-780) (Q92794 497-780): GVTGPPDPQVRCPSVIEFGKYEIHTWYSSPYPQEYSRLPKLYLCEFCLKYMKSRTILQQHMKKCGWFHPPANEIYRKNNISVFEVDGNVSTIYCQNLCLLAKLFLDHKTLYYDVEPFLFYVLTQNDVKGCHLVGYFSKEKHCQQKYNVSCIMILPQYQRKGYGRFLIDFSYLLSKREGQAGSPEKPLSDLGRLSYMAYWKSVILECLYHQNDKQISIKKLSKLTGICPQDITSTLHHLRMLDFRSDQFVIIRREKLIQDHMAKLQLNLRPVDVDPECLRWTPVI

In general, pIC50 refers to the IC50 on a negative log10 scale, so that one unit is a factor of ten. As a reminder, the IC50 is the concentration needed to halve the response being measured. `COc1ccc(N2CCC(OC)CC2)cc1S(=O)(=O)NC(=O)c1ccc(Cn2cccn2)c(C2CC2)c1` [Example C17, 4-((1H-pyrazol-1-yl)methyl)-3-cyclopropyl-N-((2-methoxy-5-(4-methoxypiperidin-1-yl)phenyl)sulfonyl)benzamide]: the pIC50 in test [1] and in test [3] was not below 8.30 in each case. In test [2], this compound gave an IC50 of 10 to 100 nM.

As for `COc1cc(C(=O)NS(=O)(=O)c2cc(C3(OC)CC3)ccc2OC)ccc1Cn1cccn1` [Example C28, 4-((1H-pyrazol-1-yl)methyl)-3-methoxy-N-((2-methoxy-5-(1-methoxy-cyclopropyl)phenyl)sulfonyl)benzamide], the pIC50 in test [1] and in test [3] was not below 8.30 throughout. The same compound showed an IC50 in test [2] not above 10 nM.

As for `COc1ccc(C(C)(C)C)nc1S(=O)(=O)NC(=O)c1ccc(Cn2cccn2)c(CC(F)F)c1` [Example C31, 4-((1H-pyrazol-1-yl)methyl)-N-((6-(tert-butyl)-3-methoxypyridin-2-yl)sulfonyl)-3-(2,2-difluoroethyl)benzamide], the pIC50 in test [1] and in test [3] was not below 8.30 throughout. Besides, the IC50 in test [2] was in the range of 10 to 100 nM.

Consider `COc1ccc(C(C)(C)C)cc1S(=O)(=O)NC(=O)c1ccc(Cn2cccn2)c(Br)c1F` [Example C11, 4-((1H-pyrazol-1-yl)methyl)-3-bromo-N-((5-(tert-butyl)-2-methoxyphenyl)sulfonyl)-2-fluorobenzamide], for which the pIC50 in test [1] and in test [3] was not below 8.30 in each case. This compound also showed an IC50 in test [2] not above 10 nM.

With `COc1ccc2c(c1S(=O)(=O)NC(=O)c1ccc(Cn3cccn3)c(OC)n1)OCC21CCC1` [Example C60, 5-((1H-pyrazol-1-yl)methyl)-6-methoxy-N-((6-methoxy-2H-spiro[benzofuran-3,1′-cyclobutan]-7-yl)sulfonyl)picolinamide], the pIC50 in test [1] and in test [3] was not below 8.30 in each case. The compound further had an IC50 in test [2] not above 10 nM.

For `COc1ccc(C2COCCN2C)cc1S(=O)(=O)NC(=O)c1ccc(Cn2cccn2)c(OC)n1` (centres unmarked) [Example C73, 5-((1H-pyrazol-1-yl)methyl)-6-methoxy-N-((2-methoxy-5-(4-methylmorpholin-3-yl)phenyl)sulfonyl) picolinamide], the pIC50 in test [1] and in test [3] was not below 8.30 in each case. In test [2], this compound showed an IC50 not above 10 nM.

As for `COc1ccc2c(c1S(=O)(=O)NC(=O)c1ccc(Cn3cccn3)c(OC)n1)OCC(C)(C)C2` [Example C55, 5-((1H-pyrazol-1-yl)methyl)-6-methoxy-N-((7-methoxy-3,3-dimethylchroman-8-yl)sulfonyl)picolinamide], the pIC50 in test [1] and in test [3] was not below 8.30 in each case. In test [2], this compound had an IC50 not above 10 nM.

Regarding `COc1cc(C(=O)NS(=O)(=O)c2c(OC)ccc3c2OCC3(C)C)ccc1Cn1cccn1` [Example C49, 4-((1H-pyrazol-1-yl)methyl)-3-methoxy-N-((6-methoxy-3,3-dimethyl-2,3-dihydrobenzofuran-7-yl)sulfonyl)benzamide], the pIC50 in test [1] and in test [3] was not below 8.30 each time. In test [2], the IC50 is not above 10 nM.

As for `COc1ccc(C2(C)CC3(COC3)C2)cc1S(=O)(=O)NC(=O)c1ccc(Cn2cccn2)c(OC)n1` [Example C74, 5-((1H-pyrazol-1-yl)methyl)-6-methoxy-N-((2-methoxy-5-(6-methyl-2-oxaspiro[3.3]heptan-6-yl)phenyl)sulfonyl) picolinamide], the pIC50 in test [1] and in test [3] was not below 8.30 each time. The compound further had an IC50 in test [2] not above 10 nM.

Regarding `C=Cc1cc(C(=O)NS(=O)(=O)c2nc(C(C)(C)C)ccc2OC)ccc1Cn1cccn1` [Example C16, 4-((1H-pyrazol-1-yl)methyl)-N-((6-(tert-butyl)-3-methoxypyridin-2-yl)sulfonyl)-3-vinylbenzamide], the pIC50 in test [1] and in test [3] was not below 8.30 each time. Moreover, in test [2], the IC50 was not above 10 nM.

For the compound `COc1ccc(C(C)(C)C(F)(F)F)nc1S(=O)(=O)NC(=O)c1ccc(Cn2cccn2)c(OC)n1` [Example C54, 5-((1H-pyrazol-1-yl)methyl)-6-methoxy-N-((3-methoxy-6-(1,1,1-trifluoro-2-methylpropan-2-yl)pyridin-2-yl)sulfonyl)picolinamide], the pIC50 in test [1] and in test [3] was not below 8.30 in each case. This compound also came in with an IC50 in test [2] not above 10 nM.

With `COc1ccc2c(c1S(=O)(=O)NC(=O)c1ccc(Cn3cccn3)c(C3CC3)n1)OCC2(C)C` [Example C47, 5-((1H-pyrazol-1-yl)methyl)-6-cyclopropyl-N-((6-methoxy-3,3-dimethyl-2,3-dihydrobenzofuran-7-yl)sulfonyl)picolinamide], the pIC50 in test [1] and in test [3] was not below 8.30 each time. The compound further displayed an IC50 in test [2] not above 10 nM.

On to `COc1ccc(C(C)(C)C)cc1S(=O)(=O)NC(=O)c1cc(Br)c(Cn2cccn2)cc1F` [Example C10, 4-((1H-pyrazol-1-yl)methyl)-5-bromo-N-((5-(tert-butyl)-2-methoxyphenyl)sulfonyl)-2-fluorobenzamide], for which the pIC50 in test [1] and in test [3] was not below 8.30 throughout. The same compound gave an IC50 in test [2] not above 10 nM.

Turning to `COc1cc2c(cc1S(=O)(=O)NC(=O)c1ccc(Cn3cccn3)c(OC)n1)C(C)(C)CO2` [Example C61, 5-((1H-pyrazol-1-yl)methyl)-6-methoxy-N-((6-methoxy-3,3-dimethyl-2,3-dihydrobenzofuran-5-yl)sulfonyl)picolinamide], the pIC50 in test [1] and in test [3] was not below 8.30 throughout. For the same compound, in test [2], the IC50 was not above 10 nM.

In the case of `COc1cccc(OC)c1S(=O)(=O)NC(=O)c1ccc(Cn2cccn2)c(OC)n1` [Example C69, 5-((1H-pyrazol-1-yl)methyl)-N-((2,6-dimethoxyphenyl)sulfonyl)-6-methoxy-picolinamide], in test [2], the IC50 is not above 10 nM. The pIC50 in test [3] was not below 8.30.
